Results taken from patent publication US20260223850A1, “SUBSTITUTED PYRROLIDONE COMPOUND, PREPARATION METHOD THEREFOR, COMPOSITION AND APPLICATION THEREOF” (QINGDAO KINGAGROOT CHEMICAL COMPOUND CO., LTD., priority 2023, published 2026).

Assays:
Type in all cases: in vivo
[1] = test system: Huaidao (rice cultivar); test: Seedling stage sealing experiment for water-seeding (crop safety); details: 120 g a.i./ha, 15 days, fresh weight control rate; for Huaidao (rice cultivar) plant damage level (growth control rate): spray, seedling stage sealing for water-seeding; for Huaidao (rice cultivar) plant damage level: seedling stage sealing
In short: (§1)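 Read-out: 0–9 damage level from fresh-weight control rate (9 = completely dead, 1 = under 10%, 0 = no effect), averaged over triplicates, taken 15 days after spraying. Doses were 120, 60, 30 and 15 g a.i./ha, acetone/water solution, spray tower.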

[2] = test system: Digitaria sanguinalis; test: Seedling stage sealing experiment for water-seeding; details: 120 g a.i./ha, 15 days, fresh weight control rate
In short: as §1

[3] = test system: Echinochloa crusgalli; test: as above; details: 120 g a.i./ha, 15 days, fresh weight control rate
[4] = test system: Echinochloa phyllopogon; test: as above; details: 120 g a.i./ha, 15 days, fresh weight control rate
In short: as §1

[5] = spray, seedling stage sealing for water-seeding

## CCn1ncc(NC(=O)[C@H]2C(=O)N(C)C[C@@H]2c2cccc(C)c2)c1F [523′]
[1]
  Huaidao (rice cultivar) plant damage level (growth control rate): 0
[2]; [5]
  Digitaria sanguinalis activity level (growth control rate): 9
[3]; [5]
  Echinochloa crusgalli activity level (growth control rate): 9
[4]; [5]
  Echinochloa phyllopogon activity level (growth control rate): 6 (Level 6: growth control rate greater than or equal to 70% and less than 80%)

## Cc1cccc([C@H]2CN(C)C(=O)[C@@H]2C(=O)Nc2cnn(C)c2C(F)F)c1 [524′]
[1]
  Huaidao (rice cultivar) plant damage level (growth control rate): 2 (Level 2: growth control rate greater than or equal to 10% and less than 20%)
[2]; [5]
  Digitaria sanguinalis activity level (growth control rate): 9
[3]; [5]
  Echinochloa crusgalli activity level (growth control rate): 9
[4]; [5]
  Echinochloa phyllopogon activity level (growth control rate): 9

## CCn1ncc(NC(=O)[C@H]2C(=O)N(C)C[C@@H]2c2cccc(C)c2)c1C(F)(F)F [525′]
[1]
  Huaidao (rice cultivar) plant damage level (growth control rate): 2 (Level 2: growth control rate greater than or equal to 10% and less than 20%)
[2]; [5]
  Digitaria sanguinalis activity level (growth control rate): 9
[3]; [5]
  Echinochloa crusgalli activity level (growth control rate): 9
[4]; [5]
  Echinochloa phyllopogon activity level (growth control rate): 9

## Cc1cccc([C@H]2CN(C)C(=O)[C@@H]2C(=O)Nc2cnn(C(C)C)c2C(F)(F)F)c1 [526′]
[1]
  Huaidao (rice cultivar) plant damage level (growth control rate): 0
[2]; [5]
  Digitaria sanguinalis activity level (growth control rate): 9
[3]; [5]
  Echinochloa crusgalli activity level (growth control rate): 9
[4]; [5]
  Echinochloa phyllopogon activity level (growth control rate): 6 (Level 6: growth control rate greater than or equal to 70% and less than 80%)

## Cc1cccc([C@H]2CN(C)C(=O)[C@@H]2C(=O)Nc2cnn(C3CC3)c2C(F)(F)F)c1 [527′]
[1]
  Huaidao (rice cultivar) plant damage level (growth control rate): 0
[2]; [5]
  Digitaria sanguinalis activity level (growth control rate): 9
[3]; [5]
  Echinochloa crusgalli activity level (growth control rate): 9
[4]; [5]
  Echinochloa phyllopogon activity level (growth control rate): 6 (Level 6: growth control rate greater than or equal to 70% and less than 80%)

## Cc1cccc([C@H]2CN(C)C(=O)[C@@H]2C(=O)Nc2cnn(C)c2S(C)(=O)=O)c1 [531′]
[1]
  Huaidao (rice cultivar) plant damage level (growth control rate): 0
[2]; [5]
  Digitaria sanguinalis activity level (growth control rate): 9
[3]; [5]
  Echinochloa crusgalli activity level (growth control rate): 9
[4]; [5]
  Echinochloa phyllopogon activity level (growth control rate): 9

## CO/N=C/c1c(NC(=O)[C@H]2C(=O)N(C)C[C@@H]2c2cccc(C)c2)cnn1C [532′]
[1]
  Huaidao (rice cultivar) plant damage level (growth control rate): 0
[2]; [5]
  Digitaria sanguinalis activity level (growth control rate): 9
[3]; [5]
  Echinochloa crusgalli activity level (growth control rate): 9
[4]; [5]
  Echinochloa phyllopogon activity level (growth control rate): 6 (Level 6: growth control rate greater than or equal to 70% and less than 80%)

## CCn1ncc(NC(=O)[C@H]2C(=O)N(C)C[C@@H]2c2cccc(C(F)(F)F)c2)c1F [533′]
[1]
  Huaidao (rice cultivar) plant damage level (growth control rate): 0
[2]; [5]
  Digitaria sanguinalis activity level (growth control rate): 9
[3]; [5]
  Echinochloa crusgalli activity level (growth control rate): 9
[4]; [5]
  Echinochloa phyllopogon activity level (growth control rate): 9

## CCn1ncc(NC(=O)[C@H]2C(=O)N(C)C[C@@H]2c2cccc(C(F)(F)F)c2)c1C(F)(F)F [535′]
[1]
  Huaidao (rice cultivar) plant damage level (growth control rate): 0
[2]; [5]
  Digitaria sanguinalis activity level (growth control rate): 9
[3]; [5]
  Echinochloa crusgalli activity level (growth control rate): 9
[4]; [5]
  Echinochloa phyllopogon activity level (growth control rate): 9

## CN1C[C@H](c2cccc(C(F)(F)F)c2)[C@@H](C(=O)Nc2cnn(C)c2[S+](C)[O-])C1=O (stereo partly drawn) [539′]
[1]
  Huaidao (rice cultivar) plant damage level (growth control rate): 0
[2]; [5]
  Digitaria sanguinalis activity level (growth control rate): 6 (Level 6: growth control rate greater than or equal to 70% and less than 80%)
[3]; [5]
  Echinochloa crusgalli activity level (growth control rate): 9

## COCn1ncc(NC(=O)[C@H]2C(=O)N(C)C[C@@H]2c2cccc(C(F)(F)F)c2)c1C1CC1 [540′]
[1]
  Huaidao (rice cultivar) plant damage level (growth control rate): 0
[2]; [5]
  Digitaria sanguinalis activity level (growth control rate): 9
[3]; [5]
  Echinochloa crusgalli activity level (growth control rate): 9
[4]; [5]
  Echinochloa phyllopogon activity level (growth control rate): 9

## Cc1cc(C)cc([C@H]2CN(C)C(=O)[C@@H]2C(=O)Nc2cnn(C)c2C(F)F)c1 [546′]
[1]
  Huaidao (rice cultivar) plant damage level (growth control rate): 0
[2]; [5]
  Digitaria sanguinalis activity level (growth control rate): 9
[3]; [5]
  Echinochloa crusgalli activity level (growth control rate): 9
[4]; [5]
  Echinochloa phyllopogon activity level (growth control rate): 9

## Cc1cc(C)cc([C@H]2CN(C)C(=O)[C@@H]2C(=O)Nc2cnn(C(C)C)c2C(F)(F)F)c1 [547′]
[1]
  Huaidao (rice cultivar) plant damage level (growth control rate): 0
[2]; [5]
  Digitaria sanguinalis activity level (growth control rate): 9
[3]; [5]
  Echinochloa crusgalli activity level (growth control rate): 9
[4]; [5]
  Echinochloa phyllopogon activity level (growth control rate): 9

## Cc1cc(C)cc([C@H]2CN(C)C(=O)[C@@H]2C(=O)Nc2cnn(C3CC3)c2C(F)(F)F)c1 [548′]
[1]
  Huaidao (rice cultivar) plant damage level (growth control rate): 0
[2]; [5]
  Digitaria sanguinalis activity level (growth control rate): 9
[3]; [5]
  Echinochloa crusgalli activity level (growth control rate): 9
[4]; [5]
  Echinochloa phyllopogon activity level (growth control rate): 6 (Level 6: growth control rate greater than or equal to 70% and less than 80%)

## Cc1cc(C)cc([C@H]2CN(C)C(=O)[C@@H]2C(=O)Nc2cnn(C)c2[S+](C)[O-])c1 (stereo partly drawn) [552′]
[1]
  Huaidao (rice cultivar) plant damage level (growth control rate): 0
[2]; [5]
  Digitaria sanguinalis activity level (growth control rate): 9
[3]; [5]
  Echinochloa crusgalli activity level (growth control rate): 9

## COCc1c(NC(=O)[C@H]2C(=O)N(C)C[C@@H]2c2cc(C)cc(C)c2)cnn1C [553′]
[1]
  Huaidao (rice cultivar) plant damage level (growth control rate): 2 (Level 2: growth control rate greater than or equal to 10% and less than 20%)
[2]; [5]
  Digitaria sanguinalis activity level (growth control rate): 9
[3]; [5]
  Echinochloa crusgalli activity level (growth control rate): 9

## CN1C[C@H](c2cc(F)cc(Cl)c2)[C@@H](C(=O)Nc2cnn(C(F)F)c2Cl)C1=O [554′]
[1]
  Huaidao (rice cultivar) plant damage level (growth control rate): 0
[2]; [5]
  Digitaria sanguinalis activity level (growth control rate): 9
[3]; [5]
  Echinochloa crusgalli activity level (growth control rate): 9
[4]; [5]
  Echinochloa phyllopogon activity level (growth control rate): 9

## CN1C[C@H](c2cc(F)cc(Cl)c2)[C@@H](C(=O)Nc2cnn(C)c2C2CC2)C1=O [555′]
[1]
  Huaidao (rice cultivar) plant damage level (growth control rate): 0
[2]; [5]
  Digitaria sanguinalis activity level (growth control rate): 9
[3]; [5]
  Echinochloa crusgalli activity level (growth control rate): 9
[4]; [5]
  Echinochloa phyllopogon activity level (growth control rate): 9

## CN1C[C@H](c2cc(F)cc(C(F)F)c2)[C@@H](C(=O)Nc2cnn(C)c2Cl)C1=O [556′]
[1]
  Huaidao (rice cultivar) plant damage level (growth control rate): 2 (Level 2: growth control rate greater than or equal to 10% and less than 20%)
[2]; [5]
  Digitaria sanguinalis activity level (growth control rate): 9
[3]; [5]
  Echinochloa crusgalli activity level (growth control rate): 9
[4]; [5]
  Echinochloa phyllopogon activity level (growth control rate): 9

## Cc1cc([C@H]2CN(C)C(=O)[C@@H]2C(=O)Nc2cnn(C(F)F)c2Cl)cc(C(F)(F)F)c1 [560′]
[1]
  Huaidao (rice cultivar) plant damage level (growth control rate): 0
[2]; [5]
  Digitaria sanguinalis activity level (growth control rate): 9
[3]; [5]
  Echinochloa crusgalli activity level (growth control rate): 9
[4]; [5]
  Echinochloa phyllopogon activity level (growth control rate): 9

## Cc1cc([C@H]2CN(C)C(=O)[C@@H]2C(=O)Nc2cnn(C)c2C2CC2)cc(C(F)(F)F)c1 [561′]
[1]
  Huaidao (rice cultivar) plant damage level (growth control rate): 1 (Level 1: growth control rate less than 10%)
[2]; [5]
  Digitaria sanguinalis activity level (growth control rate): 9
[3]; [5]
  Echinochloa crusgalli activity level (growth control rate): 9
[4]; [5]
  Echinochloa phyllopogon activity level (growth control rate): 9

## COc1cccc(C2CN(C)C(=O)C2C(=O)Nc2cnn(C)c2Cl)c1 (stereo not drawn) [Compound 28]
[1]
  Huaidao (rice cultivar) plant damage level: 0
[2]; seedling stage sealing
  Digitaria sanguinalis activity level (growth control rate): 9
[3]; seedling stage sealing
  Echinochloa crusgalli activity level (growth control rate): 9
[4]; seedling stage sealing
  Echinochloa phyllopogon activity level (growth control rate): 9

## CC(C)Oc1cccc(C2CN(C)C(=O)C2C(=O)Nc2cnn(C)c2Cl)c1 (stereo not drawn) [Compound 29]
[1]
  Huaidao (rice cultivar) plant damage level: 0
[2]; seedling stage sealing
  Digitaria sanguinalis activity level (growth control rate): 9
[3]; seedling stage sealing
  Echinochloa crusgalli activity level (growth control rate): 9
[4]; seedling stage sealing
  Echinochloa phyllopogon activity level (growth control rate): 9

## CN1CC(c2ccc(F)c(F)c2)C(C(=O)Nc2cnn(C)c2Cl)C1=O (stereo not drawn) [Compound 116]
[2]; seedling stage sealing
  Digitaria sanguinalis activity level (growth control rate): 9
[3]; seedling stage sealing
  Echinochloa crusgalli activity level (growth control rate): 7 (Level 7: growth control rate greater than or equal to 80% and less than 90%)
[4]; seedling stage sealing
  Echinochloa phyllopogon activity level (growth control rate): 6 (Level 6: growth control rate greater than or equal to 70% and less than 80%)

## CN1CC(c2cccc(C(F)(F)F)c2)C(C(=O)Nc2cnn(C)c2F)C1=O (stereo not drawn) [Compound 119]
[1]
  Huaidao (rice cultivar) plant damage level: 0
[2]; seedling stage sealing
  Digitaria sanguinalis activity level (growth control rate): 9
[3]; seedling stage sealing
  Echinochloa crusgalli activity level (growth control rate): 9
[4]; seedling stage sealing
  Echinochloa phyllopogon activity level (growth control rate): 9

## CN1CC(c2cccc(C(F)(F)F)c2)C(C(=O)Nc2cnn(C)c2Br)C1=O (stereo not drawn) [Compound 120]
[1]
  Huaidao (rice cultivar) plant damage level: 0
[2]; seedling stage sealing
  Digitaria sanguinalis activity level (growth control rate): 9
[3]; seedling stage sealing
  Echinochloa crusgalli activity level (growth control rate): 9
[4]; seedling stage sealing
  Echinochloa phyllopogon activity level (growth control rate): 9

## CN1CC(c2cccc(C(F)(F)F)c2)C(C(=O)Nc2cnn(C(F)F)c2)C1=O (stereo not drawn) [Compound 159]
[2]; seedling stage sealing
  Digitaria sanguinalis activity level (growth control rate): 9
[3]; seedling stage sealing
  Echinochloa crusgalli activity level (growth control rate): 7 (Level 7: growth control rate greater than or equal to 80% and less than 90%)
[4]; seedling stage sealing
  Echinochloa phyllopogon activity level (growth control rate): 6 (Level 6: growth control rate greater than or equal to 70% and less than 80%)

## CN1CC(c2ccc(C(F)(F)F)cc2)C(C(=O)Nc2cnn(C)c2Cl)C1=O (stereo not drawn) [Compound 249]
[2]; seedling stage sealing
  Digitaria sanguinalis activity level (growth control rate): 9
[3]; seedling stage sealing
  Echinochloa crusgalli activity level (growth control rate): 8 (Level 8: growth control rate greater than or equal to 90% and less than 100%)
[4]; seedling stage sealing
  Echinochloa phyllopogon activity level (growth control rate): 8 (Level 8: growth control rate greater than or equal to 90% and less than 100%)

## CCn1cc(NC(=O)C2C(=O)N(C)CC2c2cccc(C(F)(F)F)c2)cn1 (stereo not drawn) [Compound 456]
[1]
  Huaidao (rice cultivar) plant damage level (growth control rate): 0
[2]; [5]
  Digitaria sanguinalis activity level (growth control rate): 9
[3]; [5]
  Echinochloa crusgalli activity level (growth control rate): 7 (Level 7: growth control rate greater than or equal to 80% and less than 90%)

## CN1CC(c2cccc(C(F)(F)F)c2)C(C(=O)Nc2cn(C)nc2C(F)F)C1=O (stereo not drawn) [Compound 457]
[1]
  Huaidao (rice cultivar) plant damage level (growth control rate): 0
[2]; [5]
  Digitaria sanguinalis activity level (growth control rate): 9

## CN1CC(c2ccc(C(F)(F)F)cc2)C(C(=O)Nc2c[nH]nc2Cl)C1=O (stereo not drawn) [Control compound A, reference compound]
[2]; [5]
  Digitaria sanguinalis activity level (growth control rate): 0
[3]; [5]
  Echinochloa crusgalli activity level (growth control rate): 0
[4]; [5]
  Echinochloa phyllopogon activity level (growth control rate): 0
